Test results: patent US4755385A, “Oral pharmaceutical preparations containing 9-deoxo-11-deoxy-9,11-[imino[2-(2-methoxyethoxy)-ethylidene]-oxy]-(9S)-e rythromycin” (priority 1985, dated 1988)
Where two headings read alike, the source gives them in different places.

Tests used:
[1] = DE-A1-2,515,075; particularly when given dissolved, e.g. intravenously; cited from earlier work
[2] = Stability of the active substance as a function of pH (% intact substance)

| SMILES | antibacterial activity [1] | stability in acidic media / gastric juices ([2]; gastric juices (pH 1.0 to 2.0)) | remaining at 0.5 h ([2]; pH 1) [%] | remaining at 0.5 h ([2]; pH 6) [%] | remaining at 0.5 h ([2]; pH 6.5) [%] | remaining at 0.5 h ([2]; pH 7) [%] | remaining at 0.5 h ([2]; pH 7.5) [%] | remaining at 0.5 h ([2]; pH 8) [%] | chemical stability around pH 5.5 ([2]; pH around 5.5) | remaining at 0.5 h ([2]; pH 1.3) [%] | remaining at 1 h ([2]; pH 1.3) [%] | remaining at 0.5 h ([2]; pH 4.5) [%] | remaining at 1 h ([2]; pH 4.5) [%] | remaining at 0.5 h ([2]; pH 5.5) [%] | remaining at 1 h ([2]; pH 5.5) [%] | chemical stability around pH 5.5 |
| --- | --- | --- | --- | --- | --- | --- | --- | --- | --- | --- | --- | --- | --- | --- | --- | --- |
| CC[C@H]1OC(=O)[C@H](C)[C@@H](O[C@H]2C[C@@](C)(OC)[C@@H](O)[C@H](C)O2)[C@H](C)[C@@H](O[C@@H]2O[C@H](C)C[C@H](N(C)C)[C@H]2O)[C@](C)(O)C[C@@H](C)[C@@H]2NC(COCCOC)O[C@H]([C@H]2C)[C@]1(C)O (stereo partly drawn) [AS-E 136, 9-deoxo-11-deoxy-9,11-[imino[2-(2-methoxyethoxy)-ethylidene]oxy]-(9S)-erythromycin] | particularly good antibacterial activity | usually destroyed in a short time | 10 | 20 | 20 | 50 | 80 | 95 | retains its susceptibility to hydrolysis unchanged |  |  |  |  |  |  |  |
| CC[C@H]1OC(=O)[C@H](C)[C@@H](O[C@H]2C[C@@](C)(OC)[C@@H](O)[C@H](C)O2)[C@H](C)[C@@H](O[C@@H]2O[C@H](C)C[C@H](N(C)C)[C@H]2O)[C@](C)(O)C[C@@H](C)C(=O)[C@H](C)[C@@H](O)[C@]1(C)O [erythromycin, reference compound] |  |  |  |  |  |  |  |  |  | 30 | 10 | 55 | 50 | 100 | 85 | chemically stable long enough to be resorbed |
